Results on 10 compounds are retold here after patent US10899737B2, “Piperazine carbamates and methods of making and using same” (Lundbeck La Jolla Research Center, Inc., priority 2016, dated 2021).

In assay [1] the target is T1, MAGL (Homo sapiens, UniProt Q99685).
T1 construct: Proteomes (human prefrontal cortex or cell membrane fractions); from tissue
T1 sequence (Q99685 1-303): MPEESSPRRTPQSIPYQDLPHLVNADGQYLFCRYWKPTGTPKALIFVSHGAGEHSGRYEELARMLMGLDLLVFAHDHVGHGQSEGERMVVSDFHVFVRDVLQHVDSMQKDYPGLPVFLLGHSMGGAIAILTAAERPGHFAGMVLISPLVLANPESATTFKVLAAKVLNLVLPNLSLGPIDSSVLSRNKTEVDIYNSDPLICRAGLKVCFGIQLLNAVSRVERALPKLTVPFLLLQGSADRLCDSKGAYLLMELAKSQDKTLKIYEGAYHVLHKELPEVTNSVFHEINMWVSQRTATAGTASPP
Put plainly: In vitro competitive activity-based protein profiling (human), MAGL. The conditions noted are these: for inhibition at 1 µM: 1 μM inhibitor, human proteome, 30 min preincubation at 37° C, read-out: MAGL % inh. 1 μM (human); for IC50: human PC3. The assay is classed as biochemical. A digest of the protocol:
(§1)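 Human prefrontal cortex or cell membrane proteomes (1.0-2.0 mg/mL protein) preincubated 30 min at 37° C with inhibitor, then labeled 30 min RT with FP-Rh or JW912 probe. After SDS-PAGE, activity taken from fluorescent band intensity for each enzyme.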

Assay [2] concerns the target T2, ABHD6 (Homo sapiens, UniProt Q9BV23).
T2 construct: Proteomes (human prefrontal cortex or cell membrane fractions); endogenous in cells; human prefrontal cortex
T2 sequence (Q9BV23 1-337): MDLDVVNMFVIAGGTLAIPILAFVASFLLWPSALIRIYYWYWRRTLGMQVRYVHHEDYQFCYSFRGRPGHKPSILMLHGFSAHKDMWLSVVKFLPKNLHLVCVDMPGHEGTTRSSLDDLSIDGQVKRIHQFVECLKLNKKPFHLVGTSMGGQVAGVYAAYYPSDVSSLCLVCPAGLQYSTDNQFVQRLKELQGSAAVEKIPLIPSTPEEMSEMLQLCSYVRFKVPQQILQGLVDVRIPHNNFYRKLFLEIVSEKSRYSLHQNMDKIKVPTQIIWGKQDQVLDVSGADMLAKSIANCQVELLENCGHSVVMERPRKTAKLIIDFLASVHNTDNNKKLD
Put plainly: In vitro competitive activity-based protein profiling (human), ABHD6. The class given is biochemical. The conditions noted are these: human PC3. A digest of the protocol:
as §1

For assay [3], the target named is T3, MAGL (Mus musculus, UniProt O35678).
T3 construct: Proteomes (mouse brain membrane fraction or cell lysates); from tissue; host or cells: mouse brain membrane fraction or cell lysates
T3 sequence (O35678 1-303): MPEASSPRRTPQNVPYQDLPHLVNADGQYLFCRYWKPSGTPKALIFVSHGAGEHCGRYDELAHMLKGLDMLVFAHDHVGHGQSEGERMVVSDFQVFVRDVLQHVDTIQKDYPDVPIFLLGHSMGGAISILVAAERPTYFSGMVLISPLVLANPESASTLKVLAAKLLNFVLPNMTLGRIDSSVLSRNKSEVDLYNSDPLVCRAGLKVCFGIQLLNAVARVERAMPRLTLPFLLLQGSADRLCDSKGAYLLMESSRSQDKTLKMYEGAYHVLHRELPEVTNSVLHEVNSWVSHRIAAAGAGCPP
Put plainly: In vitro competitive activity-based protein profiling (mouse), MAGL. The assay is classed as biochemical. The conditions noted are these: for inhibition at 1 µM: 1 μM inhibitor, mouse brain membrane fraction or cell lysates, read-out: MAGL % inh. 1 μM (mouse); for IC50: mouse proteome. In outline:
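Mouse brain membrane fraction or cell lysate proteomes (50 μL, 1.0 mg/mL total protein) were preincubated with inhibitors at varying concentrations for 30 min at 37° C. FP-Rh (1.0 μL, 50 μM in DMSO) was then added for a further 30 min at 37° C. Samples were quenched with 4× SDS loading buffer and resolved by SDS-PAGE. MAGL activity was quantified from fluorescent gel band intensity using ImageJ 1.49 k.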

For assay [4], the target named is T4, ABHD6 (Mus musculus, UniProt Q8R2Y0).
T4 construct: Proteomes (mouse brain membrane fraction or cell lysates); from tissue; host or cells: mouse brain membrane fraction or cell lysates
T4 sequence (Q8R2Y0 1-336): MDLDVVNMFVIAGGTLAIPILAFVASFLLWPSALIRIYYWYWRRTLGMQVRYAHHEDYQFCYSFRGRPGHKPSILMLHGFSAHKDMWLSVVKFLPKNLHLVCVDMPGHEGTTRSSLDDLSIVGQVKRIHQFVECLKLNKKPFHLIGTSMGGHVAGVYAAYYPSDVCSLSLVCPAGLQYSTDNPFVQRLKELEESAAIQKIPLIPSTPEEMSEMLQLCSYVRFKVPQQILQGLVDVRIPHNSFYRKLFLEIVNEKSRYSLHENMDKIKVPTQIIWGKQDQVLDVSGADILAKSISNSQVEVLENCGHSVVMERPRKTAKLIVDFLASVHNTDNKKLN
Put plainly: In vitro competitive activity-based protein profiling (mouse), ABHD6. The class given is biochemical. The conditions noted are these: 1 μM inhibitor, mouse brain membrane fraction or cell lysates; read-out: ABHD6 % inh. 1 μM (mouse). A digest of the protocol:
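Mouse brain membrane proteome or cell lysate (1.0 mg/mL protein) preincubated 30 min at 37 °C with inhibitor, then labelled 30 min at 37 °C with FP-rhodamine probe. Remaining MAGL and ABHD6 activity quantified by in-gel fluorescence band intensity after SDS-PAGE; values are % inhibition at 1 μM.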

Assay [5] concerns the target T3, MAGL. Put plainly: Mouse brain proteomes from inhibitor treated mice, MAGL inhibition. The conditions noted are these: 5 mg/kg oral gavage, C57Bl/6J mouse brain, 4 h following administration; read-out: MAGL % inh. 5 mg/kg (mouse). The class given is in vivo. The procedure: Preparation of Mouse Brain Proteomes from Inhibitor Treated Mice.
Inhibitors were administered to wild-type C57Bl/6J by oral gavage in a vehicle of polyethylene glycol. Each animal was sacrificed 4 h following administration and brain proteomes were prepared and analyzed according to previously established methods (See Niphakis, M. J., et al. (2011) ACS Chem. Neurosci. and Long, J. Z., et al. Nat. Chem. Biol. 5:37-44).

Structures are written as SMILES.

What is called IC50 is the midpoint of a concentration-inhibition curve. Low readings indicate inhibition by little substance, high ones a need for much substance. As for `O=C(O)CN1CCCC12CCN(c1cc(C(F)(F)F)ccc1CN1CCN(C(=O)OC(C(F)(F)F)C(F)(F)F)CC1)CC2` [Example 20, 2-(8-(2-((4-(((1,1,1,3,3,3-Hexafluoropropan-2-yl)oxy)carbonyl)piperazin-1-yl)methyl)-5-(trifluoromethyl)phenyl)-1,8-diazaspiro[4.5]decan-1-yl)acetic Acid], the results for the inhibition at 1 µM on MAGL [1], at MAGL [3] and on ABHD6 [4] were at least 75%, at least 75% and 0 to 25%, respectively. Moreover, the IC50 was at most 0.1 µM at MAGL [1] and 1 to 10 µM at ABHD6 [2]. On MAGL [5], the inhibition at 5 mg/kg is 0 to 25%.
As for `O=C(O)C1CCN(C(=O)c2cc(CN3CCN(C(=O)OC(C(F)(F)F)C(F)(F)F)CC3)ccc2C(F)(F)F)CC1` [Example 46, 1-(5-((4-(((1,1,1,3,3,3-hexafluoropropan-2-yl)oxy)carbonyl)piperazin-1-yl)methyl)-2-(trifluoromethyl)benzoyl)piperidine-4-carboxylic acid], the inhibition at 1 µM on MAGL [1] is at least 75%; at MAGL [3], at least 75%; on ABHD6 [4], 0 to 25%. Moreover, the IC50 on MAGL [1] was at most 0.1 µM; on ABHD6 [2] it was 1 to 10 µM. Further, the inhibition at 5 mg/kg at MAGL [5] is 0 to 25%.
With `O=C(O)C1CCN(c2c(CN3CCN(C(=O)OC(C(F)(F)F)C(F)(F)F)CC3)ccc(Cl)c2F)CC1` [Example 62, 1-(3-chloro-2-fluoro-6-((4-(((1,1,1,3,3,3-hexafluoropropan-2-yl)oxy)carbonyl)piperazin-1-yl)methyl)phenyl)piperidine-4-carboxylic acid], the inhibition at 1 µM is at least 75% on MAGL [1], at least 75% at MAGL [3] and 50 to 75% on ABHD6 [4]. The IC50 on MAGL [1] was at most 0.1 µM; on ABHD6 [2], 1 to 10 µM. For the same compound, on MAGL [5], the inhibition at 5 mg/kg was at least 75%.
As to `O=C(O)c1ccsc1-c1cc(C(F)(F)F)ccc1CN1CCN(C(=O)OC(C(F)(F)F)C(F)(F)F)CC1` [Example 8, 2-(2-((4-(((1,1,1,3,3,3-Hexafluoropropan-2-yl)oxy)carbonyl)piperazin-1-yl)methyl)-5-(trifluoromethyl)phenyl)thiophene-3-carboxylic Acid], the inhibition at 1 µM at MAGL [1] is at least 75%; on MAGL [3] it was at least 75%; at ABHD6 [4], 25 to 50%. In addition, the IC50 at MAGL [1] was at most 0.1 µM; on ABHD6 [2], 1 to 10 µM. The inhibition at 5 mg/kg on MAGL [5] was at least 75%.
For `O=C(OC(C(F)(F)F)C(F)(F)F)N1CCN(Cc2ccc(C(F)(F)F)cc2C2(C(=O)O)CCCC2)CC1` [Example 4, 1-(2-((4-(((1,1,1,3,3,3-Hexafluoropropan-2-yl)oxy)carbonyl)piperazin-1-yl)methyl)-5-(trifluoromethyl)phenyl)cyclopentane-1-carboxylic Acid], the results for the inhibition at 1 µM on MAGL [1], at MAGL [3] and on ABHD6 [4] were at least 75%, at least 75% and 0 to 25%, respectively. In addition, the IC50 was at most 0.1 µM at MAGL [1], 1 to 10 µM at ABHD6 [2] and at most 0.1 µM on MAGL [3]. Besides, on MAGL [5], the inhibition at 5 mg/kg was at least 75%.
`O=C(O)CN1CCC2(CC1)CCN(c1cc(C(F)(F)F)ccc1CN1CCN(C(=O)OC(C(F)(F)F)C(F)(F)F)CC1)C2` [Example 19, 2-(2-(2-((4-(((1,1,1,3,3,3-Hexafluoropropan-2-yl)oxy)carbonyl)piperazin-1-yl)methyl)-5-(trifluoromethyl)phenyl)-2,8-diazaspiro[4.5]decan-8-yl)acetic Acid]: the inhibition at 1 µM at MAGL [1] was at least 75%; on MAGL [3], at least 75%; at ABHD6 [4] it was 0 to 25%. Moreover, the IC50 was at most 0.1 µM on MAGL [1], 1 to 10 µM at ABHD6 [2] and at most 0.1 µM at MAGL [3]. Moreover, on MAGL [5], the inhibition at 5 mg/kg was 0 to 25%.
For `CC1(C(=O)O)CCN(c2cc(Cl)ccc2CN2CCN(C(=O)OC(C(F)(F)F)C(F)(F)F)CC2)CC1` [Example 63, 1-(5-chloro-2-((4-(((1,1,1,3,3,3-hexafluoropropan-2-yl)oxy)carbonyl)piperazin-1-yl)methyl)phenyl)-4-methylpiperidine-4-carboxylic acid], the values for the inhibition at 1 µM at MAGL [1], on MAGL [3] and at ABHD6 [4] were at least 75%, at least 75% and 50 to 75%, respectively. The IC50 on MAGL [1] was at most 0.1 µM; at ABHD6 [2], 0.1 to 1 µM. In addition, the inhibition at 5 mg/kg at MAGL [5] was at least 75%.
In the case of `O=C(O)[C@@H]1CCCN1C1CCN(c2cc(C(F)(F)F)ccc2CN2CCN(C(=O)OC(C(F)(F)F)C(F)(F)F)CC2)CC1` [Example 64, (1-(2-((4-(((1,1,1,3,3,3-hexafluoropropan-2-yl)oxy)carbonyl)piperazin-1-yl)methyl)-5-(trifluoromethyl)phenyl)piperidin-4-yl)proline], the figures for the inhibition at 1 µM at MAGL [1], on MAGL [3] and at ABHD6 [4] were at least 75%, at least 75% and 50 to 75%, respectively. The IC50 on MAGL [1] is at most 0.1 µM; at ABHD6 [2] it was 1 to 10 µM. In addition, the inhibition at 5 mg/kg on MAGL [5] was 0 to 25%.
For `O=C(O)c1csc(-c2cc(C(F)(F)F)ccc2CN2CCN(C(=O)OC(C(F)(F)F)C(F)(F)F)CC2)c1` [Example 10, 5-(2-((4-(((1,1,1,3,3,3-Hexafluoropropan-2-yl)oxy)carbonyl)piperazin-1-yl)methyl)-5-(trifluoromethyl)phenyl)thiophene-3-carboxylic Acid], the inhibition at 1 µM on MAGL [1], on MAGL [3] and on ABHD6 [4] was at least 75% in each case. In addition, the values for the IC50 at MAGL [1] and on ABHD6 [2] were at most 0.1 µM and 1 to 10 µM, respectively. The inhibition at 5 mg/kg at MAGL [5] is 0 to 25%.
As to `O=C(O)CN1CCC(c2cc(C(F)(F)F)ccc2CN2CCN(C(=O)OC(C(F)(F)F)C(F)(F)F)CC2)C1` (centres unmarked) [Example 2, 2-(3-(2-((4-(((1,1,1,3,3,3-Hexafluoropropan-2-yl)oxy)carbonyl)piperazin-1-yl)methyl)-5-(trifluoromethyl)phenyl)pyrrolidin-1-yl)acetic Acid], the results for the inhibition at 1 µM at MAGL [1], at MAGL [3] and at ABHD6 [4] were at least 75%, at least 75% and 0 to 25%, respectively. Moreover, the IC50 is at most 0.1 µM at MAGL [1] and 1 to 10 µM on ABHD6 [2]. For the same compound, on MAGL [5], the inhibition at 5 mg/kg lay within 50 to 75%.
